In patent US20250304700A1, “ANTI-BLOOD DENDRITIC CELL ANTIGEN 2 ANTIBODIES AND USES THEREOF” (Biogen MA Inc., priority 2012, published 2025):

Experiments:
[1] = test system: TLR3-induced IFNα production by PBMC; test: TLR3-induced IFNα production by PBMC; format: cell-based, human; conditions: 1 μM Poly I:C, BIIB059 10 μg/mL to 0.5 ng/ml
Procedure: This experiment was performed to determine whether other cell types triggered with different TLR ligands are still able to produce type I IFN even in the presence of BIIB059. […] PBMC from human healthy donors were stimulated with poly: IC, which is a TLR3 ligand that can potently induce type I IFN predominantly by monocytes. […] The plates were incubated overnight (18 hours) at 37° C. and 5% CO2. 200 μL of the supernatants were collected for evaluation of IFNα levels by ELISA.

[2] = test system: TLR9-induced cytokines and chemokines by purified pDCs; test: ELISA/multiplex of cytokines from CpG-A stimulated purified pDCs; format: cell-based, human
Procedure: Shown in FIG. 17 are the amounts of secreted IFNα and IL-6 measured from a representative donor of three tested healthy donors.
BDCA2 ligation suppresses the ability of pDCs to produce type I IFNs in response to TLR ligands (see FIG. 16). […] Specifically, pDCs from human healthy donors were isolated using a two-step magnetic bead separation procedure (MACS kit, Miltenyi Biotec). […] The plates containing pDCs were incubated for 18 hours at 37° C. and supernatants collected for use in ELISA or multiplex assays to measure concentrations of inflammatory cytokines and chemokines.

[3] = test system: BDCA2 on cynomolgus plasmacytoid dendritic cells; test: Flow cytometric whole blood assay, BIIB059 binding to cynomolgus pDCs; design: species or system cynomolgus monkey; conditions: Alexa647 labeled BIIB059, on ice
BDCA2 on cynomolgus plasmacytoid dendritic cells, sequence (as listed by the source): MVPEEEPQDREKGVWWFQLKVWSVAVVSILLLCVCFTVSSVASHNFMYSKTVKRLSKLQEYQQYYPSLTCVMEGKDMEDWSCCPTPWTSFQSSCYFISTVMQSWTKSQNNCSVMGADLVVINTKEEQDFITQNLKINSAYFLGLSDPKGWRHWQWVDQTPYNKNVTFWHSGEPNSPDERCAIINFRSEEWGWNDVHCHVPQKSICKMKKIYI
Procedure: Cynomolgus monkey (Toxikon, Inc, Bedford, MA) or human peripheral blood (Biogen Idec) were collected in sodium heparin collection tubes and maintained at room temperature. A FACS staining antibody cocktail for identifying pDCs was added to each whole blood aliquot, incorporating CD20, CD14, CD123 and HLA-DR antibodies. […] Blood was incubated on ice, protected from light, for 30 min. After 30 min., each 500 μL aliquot of whole blood (cyno) or 100 μL (human) was treated with 10 mL (cyno) or 2 mL (human) of 1× Easy Lyse Buffer (Leinco Technologies) that had been incubated at 37° C. for at least one hour. After a 10-15 min. incubation at room temperature, samples were centrifuged at 1400 rpm for 5 min. The supernatant was decanted, leaving only a pellet of white blood cells (WBC). Each WBC pellet was washed with 5 mL of FACS buffer (1% BSA+0.002% NaAzide+1 mM CaCl2)+1 mM MgCl2 in PBS), and centrifuged at 1400 rpm for 5 min. The supernatant was decanted, and each WBC pellet was resuspended in 200 μL of FACS buffer and transferred to a 96-well round bottom plate (Fisher Scientific). The plate was centrifuged at 1400 rpm for 5 min. The supernatant was dumped out of the plate, and each WBC pellet was washed with 200 μL of FACS buffer. […] Each WBC pellet was resuspended in 250 μL of FACS buffer and fluorescence intensity measured on a LSRII 4-color FACS machine. […]

[4] = test system: CD62L on the surface of human pDCs; test: CD62L surface expression on pDCs by flow cytometry; format: cell-based; conditions: whole blood, 1 hour at 37° C., no stimulation
Procedure: The MFI of CD62L was determined by gating on pDCs as defined by CD14−, CD20−, HLA-DR+ and CD123+.
Metalloproteinase are known to induce CD62L shedding from the surface of immune cells. […] The surface expression of CD62L was assayed by flow cytometry. GM6001 inhibited the BIIB059-mediated down-modulation CD62L in a dose dependent manner (FIG. 45).

[5] = test system: CD32a on the surface of pDCs; test: CD32 surface expression on isolated pDCs; format: cell-based, human
Text: Treatment with effector competent isotype control had no effect on CD32 surface levels (FIG. 46).
CD40 is a cell surface protein expressed on pDCs. An anti-CD40 antibody with a fully functional Fc has the ability to engage CD40 and bind CD32 on the surface of pDCs.

[6] = test system: human and cynomolgus BDCA2 ECD; test: Octet binding of BIIB059 to BDCA2 ECD; design: species or system cynomolgus monkey; conditions: BIIB059 on anti-human Fc tips, ECD 2 μg/mL, 5 mM CaCl2
Procedure: For the association step, human and cynomolgus BDCA2 ECD was added at a concentration of 2 μg/mL. The buffer for this experiment was 50 mM HEPES, pH 7, 100 mM NaCl, 5 mM CaCl2, 1 mg/mL BSA, 0.02% Tween 20 and 0.001% azide.

[7] = test system: bulk polyclonal human IgG; test: Cross-interaction chromatography (CIC); format: physicochemical
Text: Cross-interaction chromatography (CIC) is a high throughput method for preliminary assessment of the stickiness of mAb candidates (Jacobs et al., Pharm Res., 27 (1): 65-71 (2010)). In this method, bulk polyclonal human IgG is chemically coupled to an NHS-activated chromatography resin.

[8] = test system: IFNα production from SLE sera stimulated pDCs; test: IFNα production after stimulation with SLE sera; format: cell-based, human; conditions: sera from an SLE patient at final dilution 1/5
Procedure: The ability of anti-BDCA2 mAb to inhibit IFNα production following stimulation with a physiologically relevant ligand, namely, sera from patients with SLE was also tested. SLE sera are believed to induce type I IFN through complexes of anti-DNA autoantibodies and immunostimulatory hypomethylated DNA that stimulate TLR9. PBMCs were stimulated with sera from an SLE patient (provided by Dr. Gregg Silverman, NYU) and used at a final dilution of 1/5.

[9] = 5 μM CPG-A, increasing concentrations of BIIB059

Substance | TLR3-induced IFNα production [1] | TLR9-induced IFNα, TNFα, IL-6, CCL3, CCL4, CCL5 ([2]; 1 μM CPG-A, 10 μg/mL antibody, 18 hours) | IFNα production [2, 9] | IL-6 production [2, 9] | ability to inhibit CPG-A-induced IFNα by pDCs ([2]; BIIB059 compared with 24F4A-Agly) | EC50 of binding to pDCs [3] | CD62L expression on the surface of pDCs [4] | CD32 MFI ([5]; 10 μg/mL, 1 hour at 4° C.) | CD32 on the cell surface of pDCs ([5]; 16 hours at 37° C.) | binding to human versus cyno BDCA2 ECD [6] | Solubility ([7]; CIC data table) | Rt-Test ([7]; IgG-derivatized column) | K′ ([7]; higher K′ values may indicate lower solubility) | Rt-Blank ([7]; non-derivatized column) | IFNα production [8]
BIIB059: humanized IgG1 anti-BDCA2 antibody, mature heavy chain SEQ ID NO: 4 and mature light chain SEQ ID NO: 3 | did not impact | potently inhibited | potently inhibited | greatly reduced | undistinguishable | 1-2 μg/mL | dose-dependent decrease | did not decrease the CD32 MFI | able to induce the down-modulation of CD32 | comparable | – | – | – | – | –
24F4S: hu24F4 H4/L1 with C95S light chain; differs from BIIB059 by 1 amino acid residue | – | – | – | – | – | – | – | – | – | – | good | 9.3 | 0.022 | 9.1 | completely abrogated
